The subject of one data set is Enterobacter cloacae N1. As to the kind of experiment: Antibacterial activity (mic). The class given is cell-based.
The subject of another data set is Escherichia coli 0111. The data set is described as follows: Antibacterial activity (mic). The data set is classed as cell-based.
Another data set has as its system Escherichia coli JT39 R+. The data set is described as follows: Antibacterial activity (mic). The data set is classed as cell-based.
Another data set deals with Escherichia coli ESS. As to the kind of experiment: Antibacterial activity (mic). The class given is cell-based.
The test system of a further data set is Klebsiella aerogenes A. As to the kind of experiment: Antibacterial activity (mic). The data set is classed as cell-based.
For another data set, the system named is Proteus mirabilis 977. As to the kind of experiment: Antibacterial activity (mic). The data set is classed as cell-based.
For the next data set, the system named is Proteus morganii 1580. The data set is described as follows: Antibacterial activity (mic). The data set is classed as cell-based. The conditions noted are these: Morganella morganii.
In a further data set the test system is Proteus rettgeri WM16. The data set is described as follows: Antibacterial activity (mic). The class given is cell-based. Particulars: Providencia rettgeri.
For another data set, the system named is Pseudomonas aeruginosa A. As to the kind of experiment: Antibacterial activity (mic). The data set is classed as cell-based.
For data set [1], the system named is Pseudomonas aeruginosa Dalgleish. As to the kind of experiment: Antibacterial activity (mic). The data set is classed as cell-based.
Another data set concerns Bacillus subtilis A. The data set is described as follows: Antibacterial activity (mic). The class given is cell-based.
In data set [2] the test system is Staphylococcus aureus Oxford. As to the kind of experiment: Antibacterial activity (mic). The class given is cell-based.
In data set [3] the test system is Staphylococcus aureus Russell. As to the kind of experiment: Antibacterial activity (mic). The class given is cell-based.
The next data set has as its system Streptococcus faecalis I. As to the kind of experiment: Antibacterial activity (mic). The data set is classed as cell-based. Particulars: Enterococcus faecalis.
For data set [4], the system named is Serratia marcescens NEU3974. As to the kind of experiment: Antibacterial activity (mic). The class given is cell-based.
Data set [5] in a line: Effect of serum on antibacterial activity. The data set is classed as cell-based.
A short description of data set [6]: Mouse urinary recovery of antibacterial agent. The data set is classed as in vivo. The conditions noted are these: urine, sc, 10 mg/kg s/c, parent antibacterial agent administered alone. How it is done:
By way of comparison. the parent antibacterial agent of the compound of Example 2 (ie sodium salt of [-2-acetamido- ethenylthio]-6-(I-hydroxysulphonyloxyethyl)-7-oxo-l-azabicyclo[3.2.0]hept-2-ene-2-carboxylic acid) was administered together with the corresponding dipeptidase inhibitor (ie 2-isovaleramidobut-2-ene) in a 1:1 relationship. […] However, since the compound of Example 2 liberates an approximate ratio of 2:1 by weight of antibacterial agent to inhibitor, the compound of Example 2 makes much more efficient use of the dipeptidase inhibitor.

A further data set concerns Escherichia coli E8. As to the kind of experiment: Antibacterial activity (mic). The data set is classed as cell-based.
A further data set deals with Escherichia coli E96 R+. As to the kind of experiment: Antibacterial activity (mic). The class given is cell-based.
For the next data set, the system named is Proteus mirabilis 13. The data set is described as follows: Antibacterial activity (mic). The class given is cell-based.
Data set [7] concerns Pseudomonas aeruginosa 11. The data set is described as follows: Antibacterial activity (mic). The class given is cell-based.
The subject of the next data set is Serratia marcescens US20. As to the kind of experiment: Antibacterial activity (mic). The class given is cell-based.

Converted amounts (≈) assume the structure as drawn. Where a name gives a salt, the structure may show the parent alone. Where only a bound is given, the exact number is not on record here.

Regarding `C/C=C(\NC(=O)CC(C)C)C(=O)OCOC(=O)C1=C(Sc2ncccn2)C[C@@H]2[C@@H]([C@@H](C)O)C(=O)N12` (racemic) [Example 3, 2-Isovaleramidobut-2Z-enoyloxymethyl 5(R,S),6(S,R)-3-(pyrimidin-2-ylthio)-6-[l(R,S)-hydroxyethyl]-7-oxo-1-azabicyclo[3.2.0]hept-2-ene-2-carboxylate], the MIC turned out to be 25 µg/mL (≈ 49.5 µM) against Enterobacter cloacae N1; 6.2 µg/mL (≈ 12.3 µM) against Escherichia coli 0111; 3.1 µg/mL (≈ 6.14 µM) in the data set on Escherichia coli JT39 R+; 1.6 µg/mL (≈ 3.17 µM) in the data set on Escherichia coli ESS; 3.1 µg/mL (≈ 6.14 µM) against Klebsiella aerogenes A; 12.5 µg/mL (≈ 24.8 µM) against Proteus mirabilis 977. Also, the MIC was 25 µg/mL (≈ 49.5 µM) against Proteus morganii 1580; 25 µg/mL (≈ 49.5 µM) in the data set with Proteus rettgeri WM16; greater than 100 µg/mL against Pseudomonas aeruginosa A; greater than 100 µg/mL in data set [1]; 0.8 µg/mL (≈ 1.59 µM) against Bacillus subtilis A; 0.8 µg/mL (≈ 1.59 µM) in [2]. The MIC in data set [3] came to 0.8 µg/mL (≈ 1.59 µM); against Streptococcus faecalis I, 50 µg/mL (≈ 99.1 µM); in data set [4], 100 µg/mL (≈ 198 µM). Also, the “Effect of serum on activity” value in data set [5] is 10-20 fold.

With `CC(=O)NC=CSC1=C(C(=O)O)N2C(=O)C(C(C)O)C2C1` [(A), Sodium (5R,6R)-3-[(E)-2-acetamidoethenylthio]-6-[(S)-1-hydroxyethyl]-7-axo-1-azabicyclo[3.2.0]hept-2-ene-2-carboxylate], the dose excreted in data set [6] came to 0.3%.

On to `CC(=O)NC=CSC1=C(C(=O)O)N2C(=O)C(C(C)OS(=O)(=O)O)C2C1` (stereo not drawn) [(B), sodium salt of [-2-acetamido-ethenylthio]-6-(I-hydroxysulphonyloxyethyl)-7-oxo-l-azabicyclo[3.2.0]hept-2-ene-2-carboxylic acid], for which, in [6], the dose excreted is 1.5%.

For `C/C=C(\NC(=O)CC(C)C)C(=O)OCOC(=O)C1=C(S/C=C/NC(C)=O)C[C@@H]2[C@H]([C@H](C)O)C(=O)N12` [Example 1, 2-Isovaleramidobut-2Z-enoyloxymethyl (5R,6R)-3-[(E)-2-acetamidoethenylthio]-6-[(S)-1-hydroxyethyl]-7-oxo-1-azabicyclo[3.2.0]hept-2-ene-2-carboxylate], the MIC in the data set on Enterobacter cloacae N1 turned out to be 6.2 µg/mL (≈ 12.2 µM); with Escherichia coli 0111, 0.8 µg/mL (≈ 1.57 µM); with Escherichia coli JT39 R+ it was 25 µg/mL (≈ 49.1 µM); with Escherichia coli ESS, 0.2 µg/mL (≈ 0.392 µM); in the data set on Escherichia coli E8, 0.8 µg/mL (≈ 1.57 µM); in the data set on Escherichia coli E96 R+ it was 100 µg/mL (≈ 196 µM). Also, the MIC was 6.2 µg/mL (≈ 12.2 µM) in the data set on Klebsiella aerogenes A; 3.1 µg/mL (≈ 6.08 µM) against Proteus mirabilis 977; 0.8 µg/mL (≈ 1.57 µM) in the data set on Proteus mirabilis 13; 25 µg/mL (≈ 49.1 µM) against Proteus morganii 1580; 6.2 µg/mL (≈ 12.2 µM) in the data set on Proteus rettgeri WM16; greater than 100 µg/mL against Pseudomonas aeruginosa A. Besides, the MIC turned out to be 100 µg/mL (≈ 196 µM) in data set [7]; 100 µg/mL (≈ 196 µM) in [1]; 6.2 µg/mL (≈ 12.2 µM) with Serratia marcescens US20; 0.4 µg/mL (≈ 0.785 µM) in the data set on Bacillus subtilis A; 0.4 µg/mL (≈ 0.785 µM) in data set [2]; 0.8 µg/mL (≈ 1.57 µM) in data set [3]. It took 3.1 µg/mL (≈ 6.08 µM) to inhibit growth with Streptococcus faecalis I (MIC). Besides, the “Effect of serum on activity” value in [5] is 2-8 fold.

With `CC=C(NC(=O)CC(C)C)C(=O)OCOC(=O)C1=C(SC=CNC(C)=O)CC2C(C(C)OS(=O)(=O)O)C(=O)N12` [Example 2, Sodium salt of 2-Isovaleramidobut-2Z-en-oyloxymethyl (5R,6R)-3-[(E)-2-acetamidoethenylthio]-6-[(S)-l-hydroxysulphonyloxyethyl]-7-oxo-l-azabicyclo[3.2.0]hept 2-ene-2-carboxylate], the MIC in the data set on Enterobacter cloacae N1 came to 3.1 µg/mL; in the data set with Escherichia coli 0111 it was 3.1 µg/mL; in the data set on Escherichia coli JT39 R+ it was 1.6 µg/mL; against Escherichia coli ESS, 1.6 µg/mL; against Escherichia coli E8, 6.2 µg/mL; against Escherichia coli E96 R+, 12.5 µg/mL. The MIC against Klebsiella aerogenes A is 0.4 µg/mL; in the data set on Proteus mirabilis 977, 3.1 µg/mL; against Proteus rettgeri WM16 it was 0.8 µg/mL; against Pseudomonas aeruginosa A, 100 µg/mL; in data set [7], 100 µg/mL; in data set [1], 100 µg/mL. For the same molecule, the MIC amounted to 6.2 µg/mL in the data set with Serratia marcescens US20; 1.6 µg/mL with Bacillus subtilis A; 1.6 µg/mL in [2]; 3.1 µg/mL in data set [3]; 50 µg/mL against Streptococcus faecalis I. Moreover, the “Effect of serum on activity” value in data set [5] is on record as 2-4 fold.
